According to patent US20250340557A1, “PYRIMIDINE DERIVATIVE” (ASKA PHARMACEUTICAL CO., LTD., priority 2022, published 2025):

These compounds were tested against T1, human mPGES-1 (Homo sapiens, UniProt O14684) (assay: Test for mPGES-1 inhibitory activity (microsomal enzyme, PGE2 EIA)). Conditions: microsomes from COS-1 cells transfected with human mPGES-1 cDNA; substrate PGH2 1 μM; 4° C., 4 minutes; PGE2 measured by EIA; read-out: h mPGES1 IC50.
T1 construct: made in house; host or cells: COS-1 cells (transient transfection; microsomal fraction used as enzyme)
T1 sequence (O14684 1-152): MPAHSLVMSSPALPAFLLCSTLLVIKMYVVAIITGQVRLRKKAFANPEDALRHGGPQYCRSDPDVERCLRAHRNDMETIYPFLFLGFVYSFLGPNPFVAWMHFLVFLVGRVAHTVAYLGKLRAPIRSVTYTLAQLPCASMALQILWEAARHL
Format: biochemical
Outline: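 Enzyme source was microsomes from COS-1 cells transiently expressing human mPGES-1, in sodium phosphate pH 7.2 with 2.5 mM GSH, 1 mM EDTA and 2% DMSO final. After a 15 min preincubation with compound at 4 °C, 1 μM PGH2 (final) reacted for 4 min at 4 °C.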

| SMILES | IC50 |
| --- | --- |
| Cc1cc(=O)[nH]c(-c2c(C(F)(F)F)ccc(CNC(=O)[C@H]3CC[C@H](OCc4cccc(C(F)(F)F)c4)CC3)c2F)n1 [Example 109, trans-N-[2-fluoro-3-(4-methyl-6-oxo-1,6-dihydropyrimidin-2-yl)-4-(trifluoromethyl)benzyl]-4-{[3-(trifluoromethyl)benzyl]oxy}cyclohexane-1-carboxamide] | 10 nM |
| O=c1cc(C(F)(F)F)nc(-c2c(C(F)(F)F)ccc(CNC(=O)[C@H]3CC[C@H](OCc4cccc(C(F)(F)F)c4)CC3)c2F)[nH]1 [Example 112, trans-N-{2-fluoro-3-[6-oxo-4-(trifluoromethyl)-1,6-dihydropyrimidin-2-yl]-4-(trifluoromethyl)benzyl}-4-{[3-(trifluoromethyl)benzyl]oxy}cyclohexane-1-carboxamide] | 29 nM |
| O=c1cc(C(F)(F)F)nc(-c2c(C(F)(F)F)ccc(CNC(=O)[C@H]3CC[C@H](OCc4ccc(F)cc4F)CC3)c2F)[nH]1 [Example 114, trans-4-[(2,4-difluorobenzyl)oxy]-N-{2-fluoro-3-[6-oxo-4-(trifluoromethyl)-1,6-dihydropyrimidin-2-yl]-4-(trifluoromethyl)benzyl}cyclohexane-1-carboxamide] | 5.2 nM |
| O=c1cc(C(F)(F)F)nc(-c2c(C(F)(F)F)ccc(CNC(=O)[C@H]3CC[C@H](OCc4ccc(F)c(F)c4)CC3)c2F)[nH]1 [Example 115, trans-4-[(3,4-difluorobenzyl)oxy]-N-{2-fluoro-3-[6-oxo-4-(trifluoromethyl)-1,6-dihydropyrimidin-2-yl]-4-(trifluoromethyl)benzyl}cyclohexane-1-carboxamide] | 21 nM |
| O=c1cc(C(F)F)nc(-c2c(C(F)(F)F)ccc(CNC(=O)[C@H]3CC[C@H](OCc4ccc(Cl)cc4)CC3)c2F)[nH]1 [Example 116, trans-4-[(4-chlorobenzyl)oxy]-N-{3-[4-(difluoromethyl)-6-oxo-1,6-dihydropyrimidin-2-yl]-2-fluoro-4-(trifluoromethyl)benzyl}cyclohexane-1-carboxamide] | 10 nM |
| O=c1cc(C(F)(F)F)nc(-c2c(C(F)(F)F)ccc(CNC(=O)[C@H]3CC[C@H](OCc4ccc(Cl)cc4F)CC3)c2F)[nH]1 [Example 118, trans-4-[(4-chloro-2-fluorobenzyl)oxy]-N-{2-fluoro-3-[6-oxo-4-(trifluoromethyl)-1,6-dihydropyrimidin-2-yl]-4-(trifluoromethyl)benzyl}cyclohexane-1-carboxamide] | < 1 nM |
| CCc1nc(-c2c(C(F)(F)F)ccc(CNC(=O)[C@H]3CC[C@H](OCc4ccccc4Cl)CC3)c2F)[nH]c(=O)c1F [Example 124, trans-4-[(2-chlorobenzyl)oxy]-N-[3-(4-ethyl-5-fluoro-6-oxo-1,6-dihydropyrimidin-2-yl)-2-fluoro-4-(trifluoromethyl)benzyl]cyclohexane-1-carboxamide] | < 1 nM |
| CCc1nc(-c2c(C(F)(F)F)ccc(CNC(=O)[C@H]3CC[C@H](OCc4ccc(Cl)cc4)CC3)c2F)[nH]c(=O)c1F [Example 125, trans-4-[(4-chlorobenzyl)oxy]-N-[3-(4-ethyl-5-fluoro-6-oxo-1,6-dihydropyrimidin-2-yl)-2-fluoro-4-(trifluoromethyl)benzyl]cyclohexane-1-carboxamide] | 19 nM |

Other lines, results leading:

| IC50 | SMILES |
| --- | --- |
| 23 nM | Cc1cc(=O)[nH]c(-c2c(C(F)(F)F)ccc(CNC(=O)[C@H]3CC[C@H](OCc4ccc(Cl)cc4)CC3)c2F)n1 [Example 105, trans-4-[(4-chlorobenzyl)oxy]-N-[2-fluoro-3-(4-methyl-6-oxo-1,6-dihydropyrimidin-2-yl)-4-(trifluoromethyl)benzyl]cyclohexane-1-carboxamide] |
| 13 nM | Cc1cc(=O)[nH]c(-c2c(C(F)(F)F)ccc(CNC(=O)[C@H]3CC[C@H](OCc4ccc(F)c(F)c4)CC3)c2F)n1 [Example 107, trans-4-[(3,4-difluorobenzyl)oxy]-N-[2-fluoro-3-(4-methyl-6-oxo-1,6-dihydropyrimidin-2-yl)-4-(trifluoromethyl)benzyl]cyclohexane-1-carboxamide] |
| 38 nM | Cc1cc(=O)[nH]c(-c2c(C(F)(F)F)ccc(CNC(=O)[C@H]3CC[C@H](OCc4ccccc4Cl)CC3)c2F)n1 [Example 108, trans-4-[(2-chlorobenzyl)oxy]-N-[2-fluoro-3-(4-methyl-6-oxo-1,6-dihydropyrimidin-2-yl)-4-(trifluoromethyl)benzyl]cyclohexane-1-carboxamide] |
| 19 nM | Cc1cc(=O)[nH]c(-c2c(C(F)(F)F)ccc(CNC(=O)[C@H]3CC[C@H](OCc4cccc(Cl)c4)CC3)c2F)n1 [Example 111, trans-4-[(3-chlorobenzyl)oxy]-N-[2-fluoro-3-(4-methyl-6-oxo-1,6-dihydropyrimidin-2-yl)-4-(trifluoromethyl)benzyl]cyclohexane-1-carboxamide] |
| < 1 nM | O=c1cc(C(F)(F)F)nc(-c2c(C(F)(F)F)ccc(CNC(=O)[C@H]3CC[C@H](OCc4cc(F)cc(F)c4)CC3)c2F)[nH]1 [Example 117, trans-4-[(3,5-difluorobenzyl)oxy]-N-{2-fluoro-3-[6-oxo-4-(trifluoromethyl)-1,6-dihydropyrimidin-2-yl]-4-(trifluoromethyl)benzyl}cyclohexane-1-carboxamide] |
| < 1 nM | O=c1cc(C(F)(F)F)nc(-c2c(C(F)(F)F)ccc(CNC(=O)[C@H]3CC[C@H](OCc4cc(F)cc(Cl)c4)CC3)c2F)[nH]1 [Example 119, trans-4-[(3-chloro-5-fluorobenzyl)oxy]-N-{2-fluoro-3-[6-oxo-4-(trifluoromethyl)-1,6-dihydropyrimidin-2-yl]-4-(trifluoromethyl)benzyl}cyclohexane-1-carboxamide] |
| 11 nM | Cc1cc(=O)[nH]c(-c2c(C(F)(F)F)ccc(CNC(=O)[C@H]3CC[C@H](OCc4cc(F)cc(F)c4)CC3)c2F)n1 [Example 120, trans-4-[(3,5-difluorobenzyl)oxy]-N-[2-fluoro-3-(4-methyl-6-oxo-1,6-dihydropyrimidin-2-yl)-4-(trifluoromethyl)benzyl]cyclohexane-1-carboxamide] |
| < 1 nM | Cc1cc(=O)[nH]c(-c2c(C(F)(F)F)ccc(CNC(=O)[C@H]3CC[C@H](OCc4ccc(Cl)cc4F)CC3)c2F)n1 [Example 121, trans-4-[(4-chloro-2-fluorobenzyl)oxy]-N-[2-fluoro-3-(4-methyl-6-oxo-1,6-dihydropyrimidin-2-yl)-4-(trifluoromethyl)benzyl]cyclohexane-1-carboxamide] |
| < 1 nM | Cc1cc(=O)[nH]c(-c2c(C(F)(F)F)ccc(CNC(=O)[C@H]3CC[C@H](OCc4cc(F)cc(Cl)c4)CC3)c2F)n1 [Example 122, trans-4-[(3-chloro-5-fluorobenzyl)oxy]-N-[2-fluoro-3-(4-methyl-6-oxo-1,6-dihydropyrimidin-2-yl)-4-(trifluoromethyl)benzyl]cyclohexane-1-carboxamide] |
| < 1 nM | Cc1nc(-c2c(C(F)(F)F)ccc(CNC(=O)[C@H]3CC[C@H](OCc4cccc(Cl)c4)CC3)c2F)[nH]c(=O)c1F [Example 123, trans-4-[(3-chlorobenzyl)oxy]-N-[2-fluoro-3-(5-fluoro-4-methyl-6-oxo-1,6-dihydropyrimidin-2-yl)-4-(trifluoromethyl)benzyl]cyclohexane-1-carboxamide] |
